Laboratory results taken from patent US10400008B2, “Modulators of the SRC-kinase activity for preventing or treating metastatic cancer” (Cancer Research Technology Limited, priority 2013, dated 2019).
Several values for one entry are separate records, joined by “and”; a condition that tells them apart may be missing. Identical values can stand only once.

What was measured:
HT1080 cells [1] = assay: BrdU incorporation (DNA synthesis) in HT1080 cells; type: cell-based, human; conditions: 18 h, EGF 100 ng/ml, peptide 1 nM
Procedure: Androgen challenging of these cells neither induces AR nuclear translocation, nor enhances DNA synthesis while robustly increases cell motility. In A, quiescent HT1080 cells were transfected with 3416 or 3424 ARE-luc constructs with or without hAR expressing plasmid. Details of these procedures have been described in Methods. Cells were left un-stimulated or stimulated for 18 h with 10 nM R1881. The luciferase activity was assayed, normalized using beta-gal as an internal control, and expressed as fold induction. Means and SEM are shown; n represents the number of experiments. […] In B, quiescent HT1080 cells on coverslips were left untreated or treated for 60 min with 10 nM R1881. Cells were analysed by IF for AR (left images) or Hoechst (right images). Images are representative of three independent experiments. […] In C, BrdU incorporation in cells on coverslips was analysed and expressed as in FIG. 2. In D, the number of migrated cells was evaluated and expressed as relative increase. […]
FIG. 3: Inhibition by S1 peptide of AR/Src complex, Src activation and DNA synthesis triggered by EGF in HT1080 cells. […] Lower section in A, lysates were immune-precipitated with anti EGFR Ab and proteins in immune-complexes were detected using antibodies against the indicated proteins. […] After in vivo pulse with BrdU (100 μM; Sigma), BrdU incorporation was analyzed by IF and expressed as % of total nuclei. […]

AR/Src complex = target: T1, AR/Src complex (Homo sapiens, UniProt P12931); assay: EGFR/AR/Src association by immunoprecipitation in EGF-stimulated HT1080 cells; type: cell-based; conditions: EGF 100 ng/ml 10 min, peptide 1 nM
T1 construct: endogenous in cells; host or cells: HT1080 human fibrosarcoma cells
T1 sequence (P12931 2-536 limits assumed, one chain of several): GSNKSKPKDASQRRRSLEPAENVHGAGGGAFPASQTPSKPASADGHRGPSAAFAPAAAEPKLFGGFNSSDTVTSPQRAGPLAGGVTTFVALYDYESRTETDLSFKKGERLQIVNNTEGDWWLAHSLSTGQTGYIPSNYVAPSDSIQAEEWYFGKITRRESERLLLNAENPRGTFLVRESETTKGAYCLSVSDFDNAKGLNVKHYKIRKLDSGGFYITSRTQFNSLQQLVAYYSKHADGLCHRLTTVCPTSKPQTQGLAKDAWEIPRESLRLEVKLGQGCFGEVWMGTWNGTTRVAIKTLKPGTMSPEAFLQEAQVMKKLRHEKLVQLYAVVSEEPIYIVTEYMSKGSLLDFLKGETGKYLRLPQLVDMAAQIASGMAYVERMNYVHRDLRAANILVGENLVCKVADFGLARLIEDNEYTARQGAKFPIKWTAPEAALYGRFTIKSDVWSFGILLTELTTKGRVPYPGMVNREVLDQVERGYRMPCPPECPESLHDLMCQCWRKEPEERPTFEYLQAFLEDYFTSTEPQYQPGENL
Procedure: (§1) FIG. 3: Inhibition by S1 peptide of AR/Src complex, Src activation and DNA synthesis triggered by EGF in HT1080 cells. Quiescent HT1080 cells were used. The cells were left un-stimulated or stimulated for 10 min with EGF (at 100 ng/ml; Roche) in the absence or presence of S1 or Ss peptide (both at 1 nM). Casodex (at 10 μM) was used for comparison with the S1 peptide. The same concentrations of peptides and Casodex were used throughout the experiments. Upper section in A, the Western blot of HT1080 cell lysates with anti-EGFR antibody is shown. […] Lower section in A, lysates were immune-precipitated with anti EGFR Ab and proteins in immune-complexes were detected using antibodies against the indicated proteins. In B, lysates were immune-precipitated with the anti-Src MAb and Src activity in immune-complexes was assayed using enolase as a substrate. In C, cells on coverslips were left untreated or treated for 18 h with the indicated compounds. After in vivo pulse with BrdU (100 μM; Sigma), BrdU incorporation was analyzed by IF and expressed as % of total nuclei. Mean and SEM are shown. n represents the number of experiments.
(§2) Src tyrosine kinase was immune-precipitated, detected and assayed using enolase as a substrate (15). Src, EGF-R and tubulin were detected from cell lysates using appropriate antibodies (7). AR was immune-precipitated and detected as reported (3). […]

HT1080 cells [2] = assay: Migration in Trans-well filters and wound healing of HT1080 cells; type: cell-based, human; conditions: 6 h, peptide 1 nM
Procedure: (§3) FIG. 4: The S1 peptide inhibits EGF-stimulated migration and MMP-9 secretion in HT1080 cells. Quiescent HT1080 cells were used. In A, cells were left untreated or treated for 6 h with the indicated compounds. MMP-9 release was assayed as described in Methods. In B, cells were allowed to migrate for 6 h in Trans-well filters in the absence or presence of the indicated compounds. Migrated cells were stained and counted as reported in Methods. In A and B, data were expressed as relative increase. Mean and SEM is shown. n represents the number of experiments. In C, cells were wounded and then left unstimulated or stimulated for 6 h with the indicated compounds. Contrast-phase images are representative of 3 different experiments, each performed in duplicate.
(§4) BrdU incorporation, migration and wound healing analysis were done as described (3, 11). MMP-9 activity was assayed (12, 13), using the fluorescent AK411 kit (BIOMOL Res. Lab.).

Src = target: T2, Src (Homo sapiens, UniProt P12931); assay: Src kinase assay in immune-complexes with enolase as substrate, EGF-stimulated HT1080 cells; type: cell-based; conditions: EGF 100 ng/ml 10 min, peptide 1 nM
T2 construct: lysates were immune-precipitated with the anti-Src MAb and Src activity in immune-complexes was assayed using enolase as a substrate; endogenous in cells; host or cells: HT1080 human fibrosarcoma cells
T2 sequence (P12931 whole entry): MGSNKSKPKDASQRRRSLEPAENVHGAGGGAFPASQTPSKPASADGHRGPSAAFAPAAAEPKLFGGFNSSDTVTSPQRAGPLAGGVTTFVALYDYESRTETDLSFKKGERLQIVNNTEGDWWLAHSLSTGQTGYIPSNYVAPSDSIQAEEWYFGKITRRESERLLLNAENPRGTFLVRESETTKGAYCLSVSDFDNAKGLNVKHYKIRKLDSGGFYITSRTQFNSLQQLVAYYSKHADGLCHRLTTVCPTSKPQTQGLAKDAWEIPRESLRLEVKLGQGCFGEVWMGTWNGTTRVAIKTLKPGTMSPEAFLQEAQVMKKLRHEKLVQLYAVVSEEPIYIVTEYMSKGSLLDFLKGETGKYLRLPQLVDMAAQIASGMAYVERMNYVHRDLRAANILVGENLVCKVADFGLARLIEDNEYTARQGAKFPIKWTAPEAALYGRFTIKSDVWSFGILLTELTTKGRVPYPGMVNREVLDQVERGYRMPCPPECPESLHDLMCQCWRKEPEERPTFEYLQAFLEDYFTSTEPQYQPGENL
Procedure: as §1, §2

MMP-9 = MMP-9 release from HT1080 cells (fluorescent AK411 kit); type: cell-based, human; conditions: 6 h, peptide 1 nM
Procedure: as §3, §4

[3] = target: AR association with Src-SH3 domain (Homo sapiens, UniProt P12931); conditions: androgen-challenged LNCaP cells, reference 10; cited from earlier work
Chain of AR association with Src-SH3 domain (P12931 2-536 limits assumed): as the sequence (P12931 2-536 limits assumed, one chain of several) above

[4] = test system: plugs of uterine tissue (endometriosis lesions); assay: Dose ranging prevention study: lesion burden, growth and establishment of transplanted uterine tissue plugs; type: in vivo, C57BL6 mice; conditions: for Lesion establishment, single plug (P1-P4, M1, M2): 1 or 0 per plug, individual mouse; for Lesion establishment, single plug (P1-P4, M1, M2) / Lesion burden, Ave / Lesion growth, Ave / Lesion burden, Mean / Lesion establishment, Mean / Lesion growth, Mean / Lesion burden, single plug (P1-P6) / Lesion growth, single plug (P1-P4, M1, M2) / Lesion establishment, Ave: prevention; for Lesion burden, Ave / Lesion growth, Ave: average per mouse; for lesion burden / lesion growth: control 7.18; for Lesion burden, Mean / Lesion establishment, Mean / Lesion growth, Mean: group mean; for Lesion burden, single plug (P1-P6) / Lesion growth, single plug (P1-P4, M1, M2): individual mouse and plug; for Lesion establishment, Ave: per mouse
[5] = 1 ng/mouse s.c. daily, listed as ValiRx1
[6] = 10 ng/mouse s.c. daily, listed as ValiRx1
[7] = 100 ng/mouse s.c. daily, listed as ValiRx1
[8] = first of three dose groups (1 ng, 10 ng, 100 ng daily s.c.)
[9] = second of three dose groups (1 ng, 10 ng, 100 ng daily s.c.)
[10] = third of three dose groups (1 ng, 10 ng, 100 ng daily s.c.)

Ac-PPPHPHARIK-NH2 [VAL001]
EGF-triggered DNA synthesis (BrdU incorporation) (HT1080 cells [1]): inhibits
EGF-induced AR/Src association and AR/Src association with EGF-R (AR/Src complex): abolishes
EGF-increased motility (HT1080 cells [2]): inhibited at a similar extent
EGF stimulation of Src activity (Src): almost completely abolished
EGF-stimulated MMP-9 secretion (MMP-9): inhibits
AR association with Src-SH3 domain [3]: competes
Lesion establishment, single plug (P1-P4, M1, M2) [4, 5]: 1 (29×) and 0
Lesion establishment, single plug (P1-P4, M1, M2) [4, 6]: 1 (29×) and 0
Lesion establishment, single plug (P1-P4, M1, M2) ([4]; 100 ng/mouse s.c. daily): 1
Lesion burden, Ave [4, 5]: 6.5 mm^2 and 8.5 mm^2 and 1.1 mm^2 and 1.9 mm^2 and 12.1 mm^2
Lesion growth, Ave [4, 5]: 6.5 mm^2 and 8.5 mm^2 and 1.3 mm^2 and 1.9 mm^2 and 12.1 mm^2
Lesion burden, Ave [4, 6]: 2.9 mm^2 and 6.7 mm^2 and 11.3 mm^2 and 3.3 mm^2 and 3.5 mm^2
Lesion growth, Ave [4, 6]: 2.9 mm^2 and 6.7 mm^2 and 11.3 mm^2 and 3.3 mm^2 and 4.2 mm^2
Lesion burden, Ave [4, 7]: 11.8 mm^2 and 1.8 mm^2 and 3.2 mm^2 and 3.0 mm^2 and 2.9 mm^2
Lesion growth, Ave [4, 7]: 11.8 mm^2 and 1.8 mm^2 and 3.2 mm^2 and 3.0 mm^2 and 2.9 mm^2
lesion growth following treatment ([4]; daily 1 ng, 10 ng or 100 ng s.c., dosed group vs control): significantly reduced
lesion burden [4, 8]: 6.02 mm^2
lesion growth [4, 8]: 6.23 mm^2
Lesion burden, Mean ([4]; 1 ng/mouse s.c. daily): 6.02 mm^2
Lesion establishment, Mean ([4]; 1 ng/mouse s.c. daily): 96.67%
Lesion growth, Mean ([4]; 1 ng/mouse s.c. daily): 6.23 mm^2
Lesion burden, Mean ([4]; 10 ng/mouse s.c. daily): 5.53 mm^2
Lesion establishment, Mean ([4]; 10 ng/mouse s.c. daily): 96.67%
Lesion growth, Mean ([4]; 10 ng/mouse s.c. daily): 5.72 mm^2
Lesion burden, Mean ([4]; 100 ng/mouse s.c. daily): 4.52 mm^2
Lesion establishment, Mean ([4]; 100 ng/mouse s.c. daily): 100.00%
Lesion growth, Mean ([4]; 100 ng/mouse s.c. daily): 4.52 mm^2
Lesion burden, single plug (P1-P6) [4, 5]: 1.1 mm^2 (3×) and 3.1 mm^2 and 2.5 mm^2 and 4.2 mm^2 and 16.7 mm^2 and 15.2 mm^2 and 3.8 mm^2 (2×) and 0.2 mm^2 (3×) and 6.2 mm^2 and 0.5 mm^2 and 9.4 mm^2 and 0.0 mm^2 and 3.5 mm^2 (2×) and 17.0 mm^2 and 11.2 mm^2 and 8.0 mm^2 (2×) and 15.1 mm^2 and 5.7 mm^2 and 10.2 mm^2 and 10.6 mm^2 and 16.6 mm^2 and 1.8 mm^2 and 0.1 mm^2
Lesion growth, single plug (P1-P4, M1, M2) [4, 5]: 1.131 mm^2 (3×) and 3.142 mm^2 and 2.545 mm^2 and 4.155 mm^2 and 16.74 mm^2 and 15.21 mm^2 and 3.801 mm^2 (2×) and 0.196 mm^2 (3×) and 6.158 mm^2 and 0.503 mm^2 and 9.425 mm^2 and 3.456 mm^2 and 3.464 mm^2 and 16.96 mm^2 and 11.2 mm^2 and 8.042 mm^2 (2×) and 15.1 mm^2 and 5.694 mm^2 and 10.18 mm^2 and 10.56 mm^2 and 16.62 mm^2 and 1.767 mm^2 and 0.126 mm^2
Lesion burden, single plug (P1-P6) [4, 6]: 1.0 mm^2 (3×) and 3.5 mm^2 (5×) and 10.9 mm^2 and 7.3 mm^2 and 10.0 mm^2 and 4.5 mm^2 (2×) and 12.6 mm^2 and 7.0 mm^2 and 9.6 mm^2 and 3.1 mm^2 (2×) and 1.1 mm^2 and 2.5 mm^2 and 0.2 mm^2 and 6.7 mm^2 and 7.1 mm^2 and 5.4 mm^2 and 21.1 mm^2 and 12.1 mm^2 and 3.0 mm^2 and 0.0 mm^2 and 4.0 mm^2 and 9.7 mm^2
Lesion growth, single plug (P1-P4, M1, M2) [4, 6]: 0.95 mm^2 (3×) and 3.464 mm^2 (5×) and 10.95 mm^2 and 7.288 mm^2 and 10.02 mm^2 and 4.524 mm^2 (2×) and 12.57 mm^2 and 7.037 mm^2 and 9.621 mm^2 and 3.142 mm^2 (2×) and 1.131 mm^2 and 2.545 mm^2 and 0.196 mm^2 and 6.739 mm^2 and 7.069 mm^2 and 5.372 mm^2 and 21.11 mm^2 and 12.06 mm^2 and 2.969 mm^2 and 3.958 mm^2 and 9.66 mm^2
Lesion burden, single plug (P1-P6) [4, 7]: 7.0 mm^2 and 18.5 mm^2 and 11.0 mm^2 and 4.5 mm^2 and 2.8 mm^2 (3×) and 2.3 mm^2 (3×) and 2.0 mm^2 (2×) and 3.1 mm^2 and 3.5 mm^2 (3×) and 1.5 mm^2 and 4.9 mm^2 and 8.4 mm^2 and 12.6 mm^2 and 13.2 mm^2 and 0.2 mm^2 and 1.0 mm^2 and 0.3 mm^2 (2×) and 3.8 mm^2 (2×) and 7.5 mm^2 and 2.5 mm^2 and 1.8 mm^2
Lesion growth, single plug (P1-P4, M1, M2) [4, 7]: 7.037 mm^2 and 18.47 mm^2 and 11 mm^2 and 4.453 mm^2 and 2.827 mm^2 (2×) and 2.27 mm^2 (3×) and 2.011 mm^2 (2×) and 3.142 mm^2 and 3.464 mm^2 (3×) and 1.539 mm^2 and 4.909 mm^2 and 8.357 mm^2 and 12.57 mm^2 and 13.2 mm^2 and 0.196 mm^2 and 0.95 mm^2 and 0.283 mm^2 (2×) and 3.801 mm^2 (2×) and 7.548 mm^2 and 2.545 mm^2 and 2.835 mm^2 and 1.767 mm^2
Lesion establishment, Ave [4, 5]: 100% (4×) and 83.33%
Lesion establishment, Ave [4, 6]: 100% (4×) and 83.33%
Lesion establishment, Ave ([4]; 100 ng/mouse s.c. daily): 100%
lesion burden [4, 9]: 5.53 mm^2
lesion growth [4, 9]: 5.72 mm^2
lesion burden [4, 10]: 4.52 mm^2
lesion growth [4, 10]: 4.52 mm^2
